Experimental findings from patent publication US12195429B2, “Cannabinoid derivatives” (CANOPY GROWTH CORPORATION, priority 2019, dated 2025) are described below.

One experiment addresses T1, human CB2 receptor (Homo sapiens, UniProt P34972).
T1 construct: host or cells: CHO-K1
Kind of experiment: CB2 radioligand competitive binding assay ([3H]CP 55,940 displacement). To be noted: for Selectivity CB2: fold difference in binding affinity, CB2 over CB1, 1.00 = about the same affinity for both receptors.

The target of experiment [1] is T2, human CB1 receptor (Homo sapiens, UniProt P21554).
T2 construct: host or cells: CHO-K1
Kind of experiment: CB1 radioligand competitive binding assay ([3H]CP 55,940 displacement). Particulars: for Selectivity CB1: fold difference in binding affinity, CB1 over CB2, 1.00 = about the same affinity for both receptors.

Experiment [2] addresses T2, human CB1 receptor. Kind of experiment: PathHunter β-arrestin functional assay, CB1 receptor, agonist mode. Type of experiment: cell-based. To be noted: PathHunter CHO-K1 CNR1 β-arrestin cells; normalized to CP55,940.
Experiment [3] has as its target T2, human CB1 receptor. Kind of experiment: PathHunter β-arrestin functional assay, CB1 receptor, antagonist mode. Format: cell-based.
The mark [4] stands for this setting: read-out: IC50 towards human CB1 receptor, antagonist mode.

Bounds are passed on as bounds.

T2 sequence (P21554 whole entry): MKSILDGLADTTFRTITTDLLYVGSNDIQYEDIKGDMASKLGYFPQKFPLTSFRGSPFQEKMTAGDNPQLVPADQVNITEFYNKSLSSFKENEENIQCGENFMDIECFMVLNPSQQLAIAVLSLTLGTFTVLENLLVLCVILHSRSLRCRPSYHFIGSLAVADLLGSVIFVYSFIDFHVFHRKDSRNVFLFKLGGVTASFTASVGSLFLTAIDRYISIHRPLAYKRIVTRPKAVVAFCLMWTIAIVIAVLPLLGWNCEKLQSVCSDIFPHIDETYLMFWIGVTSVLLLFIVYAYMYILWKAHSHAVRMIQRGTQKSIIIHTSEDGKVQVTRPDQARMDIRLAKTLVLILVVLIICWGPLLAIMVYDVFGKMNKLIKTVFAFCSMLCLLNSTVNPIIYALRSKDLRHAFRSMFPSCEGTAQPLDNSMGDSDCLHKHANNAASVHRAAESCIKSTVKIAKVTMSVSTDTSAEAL
T1 sequence (P34972 whole entry): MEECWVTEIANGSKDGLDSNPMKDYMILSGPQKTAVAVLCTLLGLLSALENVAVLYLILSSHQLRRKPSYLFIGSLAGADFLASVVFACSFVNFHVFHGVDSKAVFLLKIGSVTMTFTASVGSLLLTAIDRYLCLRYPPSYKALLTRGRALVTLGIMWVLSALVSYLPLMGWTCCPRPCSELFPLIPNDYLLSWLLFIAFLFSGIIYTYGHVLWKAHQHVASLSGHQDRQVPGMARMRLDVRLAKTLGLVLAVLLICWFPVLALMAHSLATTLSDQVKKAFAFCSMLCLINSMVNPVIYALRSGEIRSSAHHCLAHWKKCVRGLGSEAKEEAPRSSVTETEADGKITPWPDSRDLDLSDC

A word on the IC50: it is the midpoint of a concentration-inhibition curve. In the case of `C=C(C)[C@@H]1CCC(C)=C[C@H]1c1c(O)cc(CCCCC)c(-c2ccnc(C)c2)c1O` [Compound 35d, 2-(6-isopropenyl-3-methyl-cyclohex-2-en-1-yl)-4-(2-methyl-4-pyridyl)-5-pentyl-benzene-1,3-diol], on human CB2 receptor, the IC50 lay within 1 to 4.99 µM and the “Selectivity CB2” value is given as 1.60 fold. The same molecule had an IC50 at human CB1 receptor [1] of 1 to 4.99 µM.

With `CCCCCc1cc(OC)c(C2C=C(C)CCC2)c(OC)c1-c1ccccc1` (centres unmarked) [Compound 40c, 2′,6′-dimethoxy-5-methyl-4′-pentyl-1,2,3,4-tetrahydro-1,1′:3′,1″-terphenyl], at human CB2 receptor, the IC50 lay within 1 to 4.99 µM and the “Selectivity CB2” value is listed as 1.79 fold. The IC50 on human CB1 receptor [1] was greater than 5 µM.

Regarding `C=C(C)[C@@H]1CCC(C)=C[C@H]1c1c(O)cc(CCCCC)c(-c2nnn[nH]2)c1O` [Compound 3d, 5′-methyl-4-pentyl-2′-(prop-1-en-2-yl)-3-(1H-tetrazol-5-yl)-1′,2′,3′,4′-tetrahydro-[1,1′-biphenyl]-2,6-diol], on human CB2 receptor, the IC50 is 1 to 4.99 µM and the “Selectivity CB2” value is 1.00 fold. In addition, on human CB1 receptor [1], the IC50 was 1 to 4.99 µM and the “Selectivity CB1” value was found to be 1.00 fold.

In the case of `CCCCCc1cc(O)c(C2C=C(C)CCC2)c(O)c1-c1cncnc1` (centres unmarked) [Compound 13c, 5′-methyl-4-pentyl-3-(pyrimidin-5-yl)-1′,2′,3′,4′-tetrahydro-[1,1′-biphenyl]-2,6-diol], the IC50 on human CB2 receptor and at human CB1 receptor [1] was 1 to 4.99 µM each time.

Regarding `C=C(C)[C@@H]1CCC(C)=C[C@H]1c1c(O)cc(CCCCC)c(-c2ccsc2)c1O` [Compound 17d], the “activity towards the human CB1 receptor, agonist mode” value on human CB1 receptor [2] was “minimal to no activity”. For the same molecule, the results for the IC50 at human CB2 receptor, against human CB1 receptor [3] and on human CB1 receptor [1] were less than 0.5 µM, 1 to 3 µM and 1 to 4.99 µM, respectively. Besides, at human CB2 receptor, the “Selectivity CB2” value came to 33.33 fold.

On to `CCCCCc1cc(O)c(C2C=C(C)CCC2)c(O)c1-c1cccnc1` (centres unmarked) [Compound 12c, 5′-methyl-4-pentyl-3-(pyridin-3-yl)-1′,2′,3′,4′-tetrahydro-[1,1′-biphenyl]-2,6-diol], for which the values for the IC50 on human CB2 receptor and on human CB1 receptor [1] were 0.5 to 0.99 µM and greater than 5 µM, respectively. Further, the “Selectivity CB2” value at human CB2 receptor was determined as 7.27 fold.

Consider `C=C(C)[C@@H]1CCC(C)=C[C@H]1c1c(O)cc(CCCCC)c(-c2cncnc2)c1O` [Compound 13d, 5′-methyl-4-pentyl-2′-(prop-1-en-2-yl)-3-(pyrimidin-5-yl)-1′,2′,3′,4′-tetrahydro-[1,1′-biphenyl]-2,6-diol], for which, at human CB2 receptor, the IC50 was in the range of 1 to 4.99 µM and the “Selectivity CB2” value is on record as 2.35 fold. This molecule had an IC50 at human CB1 receptor [1] of 1 to 4.99 µM.

Regarding `CCCCCc1cc(O)c(C2C=C(C)CCC2)c(O)c1-c1cccs1` (centres unmarked) [Compound 16c, 5′-methyl-4-pentyl-3-(thiophen-2-yl)-1′,2′,3′,4′-tetrahydro-[1,1′-biphenyl]-2,6-diol], the “activity towards the human CB1 receptor, agonist mode” value on human CB1 receptor [2] was “minimal to no activity”. In addition, the IC50 at human CB2 receptor is 0.5 to 0.99 µM; at human CB1 receptor [3] (setting [4]) it was 1 to 3 µM; on human CB1 receptor [1], 1 to 4.99 µM. Besides, the “Selectivity CB2” value at human CB2 receptor is recorded as 2.22 fold.

As to `CCCCCc1cc(OC)c(C2C=C(C)CCC2)c(OC)c1-c1cccnc1` (centres unmarked) [Compound 39c, 3-(2,6-dimethoxy-5′-methyl-4-pentyl-1′,2′,3′,4′-tetrahydro-[1,1′-biphenyl]-3-yl)pyridine], at human CB2 receptor, the IC50 is greater than 5 µM and the “Selectivity CB2” value was 1.47 fold. On human CB1 receptor [1], the IC50 was greater than 5 µM.

In the case of `C=C(C)[C@@H]1CCC(C)=C[C@H]1c1c(O)cc(CCCCC)c(-c2cccs2)c1O` [Compound 16d], the IC50 was less than 0.5 µM on human CB2 receptor and 1 to 4.99 µM on human CB1 receptor [1]. Also, on human CB2 receptor, the “Selectivity CB2” value is listed as 7.50 fold.

As to `C=C(C)[C@@H]1CCC(C)=C[C@H]1c1c(O)cc(CCCCC)c(-c2cn[nH]c2)c1O` [Compound 41d, 5′-methyl-4-pentyl-2′-(prop-1-en-2-yl)-3-(1H-pyrazol-4-yl)-1′,2′,3′,4′-tetrahydro-[1,1′-biphenyl]-2,6-diol], the IC50 on human CB2 receptor and at human CB1 receptor [1] was 1 to 4.99 µM throughout. In addition, at human CB2 receptor, the “Selectivity CB2” value came out at 1.60 fold.

Consider `C=C(C)[C@@H]1CCC(C)=C[C@H]1c1c(O)cc(CCCCC)c(-c2c(C)noc2C)c1O` [Compound 36d, 3-(3,5-dimethylisoxazol-4-yl)-5′-methyl-4-pentyl-2′-(prop-1-en-2-yl)-1′,2′,3′,4′-tetrahydro-[1,1′-biphenyl]-2,6-diol], for which the IC50 on human CB2 receptor is 1 to 4.99 µM. Moreover, on human CB1 receptor [1], the IC50 fell in the range of 1 to 4.99 µM and the “Selectivity CB1” value worked out at 2.22 fold.

Turning to `C=C(C)[C@@H]1CCC(C)=C[C@H]1c1c(O)cc(CCCCC)c(-c2cccnc2)c1O` [Compound 12d, 5′-methyl-4-pentyl-2′-(prop-1-en-2-yl)-3-(pyridin-3-yl)-1′,2′,3′,4′-tetrahydro-[1,1′-biphenyl]-2,6-diol], the IC50 at human CB2 receptor and on human CB1 receptor [1] was 1 to 4.99 µM each time. On human CB2 receptor, the “Selectivity CB2” value was 1.39 fold.

With `C=C(C)[C@@H]1CCC(C)=C[C@H]1c1c(O)cc(CCCCC)c(-c2ccnn2C)c1O` [Compound 33d, 5′-methyl-3-(1-methyl-1H-pyrazol-5-yl)-4-pentyl-2′-(prop-1-en-2-yl)-1′,2′,3′,4′-tetrahydro-[1,1′-biphenyl]-2,6-diol], at human CB2 receptor, the IC50 was in the range of 1 to 4.99 µM and the “Selectivity CB2” value was found to be 1.00 fold. Besides, at human CB1 receptor [1], the IC50 is 1 to 4.99 µM and the “Selectivity CB1” value is 1.00 fold.

Consider `CCCCCc1cc(O)c(C2C=C(C)CCC2)c(O)c1-c1nnn[nH]1` (centres unmarked) [Compound 3c, 5′-methyl-4-pentyl-3-(1H-tetrazol-5-yl)-1′,2′,3′,4′-tetrahydro-[1,1′-biphenyl]-2,6-diol], for which the IC50 on human CB2 receptor lay in the range of 1 to 4.99 µM; at human CB1 receptor [3] (setting [4]) it was 1 to 3 µM; at human CB1 receptor [1], 1 to 4.99 µM.

Consider `CCCCCc1cc(O)c(C2C=C(C)CCC2)c(O)c1-c1ccsc1` (centres unmarked) [Compound 17c, 5′-methyl-4-pentyl-3-(thiophen-3-yl)-1′,2′,3′,4′-tetrahydro-[1,1′-biphenyl]-2,6-diol], for which the IC50 at human CB2 receptor fell in the range of 1 to 4.99 µM; on human CB1 receptor [3] (setting [4]) it was 1 to 3 µM; on human CB1 receptor [1] it was 1 to 4.99 µM.

For `C=C(C)[C@@H]1CCC(C)=C[C@H]1c1c(O)cc(CCCCC)c(-c2ccncc2)c1O` [Compound 14d, 5′-methyl-4-pentyl-2′-(prop-1-en-2-yl)-3-(pyridin-4-yl)-1′,2′,3′,4′-tetrahydro-[1,1′-biphenyl]-2,6-diol], on human CB2 receptor, the IC50 is 1 to 4.99 µM and the “Selectivity CB2” value is recorded as 1.00 fold. On human CB1 receptor [1], the IC50 was in the range of 1 to 4.99 µM and the “Selectivity CB1” value is 1.00 fold.

On to `CCCCCc1cc(O)c(C2C=C(C)CCC2)c(O)c1-c1ccco1` (centres unmarked) [Compound 15c, 3-(furan-2-yl)-5′-methyl-4-pentyl-1′,2′,3′,4′-tetrahydro-[1,1′-biphenyl]-2,6-diol], for which the half-inhibitory concentration (IC50) on human CB2 receptor lay in the range of 1 to 4.99 µM; on human CB1 receptor [3] (setting [4]) it was 1 to 3 µM; on human CB1 receptor [1] it was 1 to 4.99 µM.

Turning to `C=C(C)[C@@H]1CCC(C)=C[C@H]1c1c(O)cc(CCCCC)c(-c2cc3ccccc3s2)c1O` [Compound 34d, 4-(benzothiophen-2-yl)-2-[6-isopropenyl-3-methyl-cyclohez-2-en-1-yl]-5-pentyl-benzene-1,3-diol], the “activity towards the human CB1 receptor, agonist mode” value on human CB1 receptor [2] is on record as “minimal to no activity”. Besides, the IC50 at human CB2 receptor was less than 0.5 µM; at human CB1 receptor [3] (setting [4]) it was 1 to 3 µM; at human CB1 receptor [1] it was 1 to 4.99 µM. Besides, the “Selectivity CB2” value at human CB2 receptor was found to be 7.22 fold.

Take `CCCCCc1cc(OC)c(C2C=C(C)CCC2)c(OC)c1-c1cccc(N2CCOCC2)c1` (centres unmarked) [Compound 38c, 4-(2′,4′-dimethoxy-5″-methyl-6′-pentyl-1″,2″,3″,4″-tetrahydro-[1,1′:3′,1″-terphenyl]-3-yl)morpholine]: the IC50 at human CB2 receptor and at human CB1 receptor [1] was less than 0.5 µM throughout. Moreover, the “Selectivity CB2” value at human CB2 receptor is listed as 19.05 fold.

Regarding `C=C(C)[C@@H]1CCC(C)=C[C@H]1c1c(O)cc(CCCCC)c(-c2ccco2)c1O` [Compound 15d, 3-(furan-2-yl)-5′-methyl-4-pentyl-2′-(prop-1-en-2-yl)-1′,2′,3′,4′-tetrahydro-[1,1′-biphenyl]-2,6-diol], the IC50 on human CB2 receptor is 1 to 4.99 µM; on human CB1 receptor [1], greater than 5 µM. Moreover, the “Selectivity CB2” value on human CB2 receptor is on record as 3.57 fold.
